Structures are written as SMILES.

What all share (details): Compound concentration 1000.0 nM
Assay [1] has as its target Serine/threonine-protein kinase MRCK gamma (Homo sapiens) (UniProt Q6DT37).
The target of assay [2] is T1, Protein kinase C epsilon type (Homo sapiens) (UniProt Q02156).
T1 sequence (whole entry): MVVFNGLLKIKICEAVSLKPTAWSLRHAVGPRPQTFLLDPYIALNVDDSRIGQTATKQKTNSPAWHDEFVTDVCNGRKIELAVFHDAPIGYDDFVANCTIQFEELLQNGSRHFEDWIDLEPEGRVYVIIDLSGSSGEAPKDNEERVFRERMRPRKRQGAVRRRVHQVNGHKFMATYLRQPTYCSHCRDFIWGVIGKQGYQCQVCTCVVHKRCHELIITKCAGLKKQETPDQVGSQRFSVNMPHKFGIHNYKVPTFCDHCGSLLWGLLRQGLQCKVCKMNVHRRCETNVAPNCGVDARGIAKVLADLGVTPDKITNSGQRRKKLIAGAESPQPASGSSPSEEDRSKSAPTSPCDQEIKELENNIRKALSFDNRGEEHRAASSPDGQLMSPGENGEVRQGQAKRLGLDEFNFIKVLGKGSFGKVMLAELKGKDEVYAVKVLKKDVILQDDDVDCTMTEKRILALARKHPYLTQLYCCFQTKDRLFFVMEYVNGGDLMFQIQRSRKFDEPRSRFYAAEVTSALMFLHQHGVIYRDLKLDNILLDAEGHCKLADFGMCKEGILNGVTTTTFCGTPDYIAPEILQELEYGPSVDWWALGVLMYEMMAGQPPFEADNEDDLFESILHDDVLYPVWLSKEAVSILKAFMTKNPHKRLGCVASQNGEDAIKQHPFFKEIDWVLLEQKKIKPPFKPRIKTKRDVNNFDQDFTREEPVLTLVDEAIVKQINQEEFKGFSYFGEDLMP

In assay [3] the target is Serine/threonine-protein kinase ULK1 (Homo sapiens) (UniProt O75385).
The target in assay [4] is T2, Serine/threonine-protein kinase ULK3 (Homo sapiens) (UniProt Q6PHR2).
T2 sequence (whole entry): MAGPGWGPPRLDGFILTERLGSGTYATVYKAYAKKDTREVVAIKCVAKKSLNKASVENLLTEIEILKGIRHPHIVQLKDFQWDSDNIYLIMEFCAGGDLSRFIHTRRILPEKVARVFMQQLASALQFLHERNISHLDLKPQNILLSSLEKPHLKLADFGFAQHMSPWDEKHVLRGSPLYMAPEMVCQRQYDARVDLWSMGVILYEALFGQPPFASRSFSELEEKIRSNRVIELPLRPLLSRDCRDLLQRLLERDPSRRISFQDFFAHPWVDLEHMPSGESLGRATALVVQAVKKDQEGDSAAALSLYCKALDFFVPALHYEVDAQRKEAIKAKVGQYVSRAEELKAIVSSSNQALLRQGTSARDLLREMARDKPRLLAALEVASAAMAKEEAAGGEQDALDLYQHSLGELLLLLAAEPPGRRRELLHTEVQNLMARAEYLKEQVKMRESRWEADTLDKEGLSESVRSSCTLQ

Assay [5] concerns Epidermal growth factor receptor (Homo sapiens), P00533 [T790M].
Assay [6] deals with T3, Protein kinase C iota type (Homo sapiens) (UniProt P41743).
T3 sequence (whole entry): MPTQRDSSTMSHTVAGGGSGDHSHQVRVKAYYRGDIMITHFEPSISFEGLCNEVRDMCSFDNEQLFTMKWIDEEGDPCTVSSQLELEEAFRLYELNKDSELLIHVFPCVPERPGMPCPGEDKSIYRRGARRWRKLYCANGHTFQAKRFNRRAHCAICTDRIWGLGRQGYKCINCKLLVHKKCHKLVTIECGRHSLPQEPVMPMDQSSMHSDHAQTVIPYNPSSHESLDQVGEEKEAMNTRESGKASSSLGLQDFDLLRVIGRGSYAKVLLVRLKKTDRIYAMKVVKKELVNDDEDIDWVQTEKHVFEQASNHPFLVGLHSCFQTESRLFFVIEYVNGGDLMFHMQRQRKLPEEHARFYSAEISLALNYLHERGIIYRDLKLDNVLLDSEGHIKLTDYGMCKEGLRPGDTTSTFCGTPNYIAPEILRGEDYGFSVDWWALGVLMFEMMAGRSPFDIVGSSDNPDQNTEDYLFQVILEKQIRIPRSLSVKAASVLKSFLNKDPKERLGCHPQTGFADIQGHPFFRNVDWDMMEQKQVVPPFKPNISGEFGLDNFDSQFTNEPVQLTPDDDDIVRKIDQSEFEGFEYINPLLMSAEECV

The target in assay [7] is Receptor tyrosine-protein kinase erbB-2 (Homo sapiens) (UniProt P04626).
The target of assay [8] is T4, Serine/threonine-protein kinase 17A (Homo sapiens) (UniProt Q9UEE5).
T4 sequence (whole entry): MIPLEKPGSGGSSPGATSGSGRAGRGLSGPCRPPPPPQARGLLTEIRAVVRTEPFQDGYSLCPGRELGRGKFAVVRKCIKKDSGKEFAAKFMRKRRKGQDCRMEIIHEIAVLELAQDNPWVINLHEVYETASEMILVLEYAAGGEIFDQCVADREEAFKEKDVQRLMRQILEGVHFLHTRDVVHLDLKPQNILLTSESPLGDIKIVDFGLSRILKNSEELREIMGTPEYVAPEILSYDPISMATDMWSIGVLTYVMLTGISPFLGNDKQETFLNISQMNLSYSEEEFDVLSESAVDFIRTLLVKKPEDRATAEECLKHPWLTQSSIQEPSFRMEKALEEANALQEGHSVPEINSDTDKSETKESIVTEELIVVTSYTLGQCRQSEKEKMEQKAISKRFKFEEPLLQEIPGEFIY

Assay [9] relates to Receptor-type tyrosine-protein kinase FLT3 (Homo sapiens), P36888 [K663Q].
Assay [10] addresses Cyclin-dependent kinase 19 (Homo sapiens) (UniProt Q9BWU1).
The test system of assay [11] is Tyrosine-protein kinase ABL1 (Homo sapiens), P00519 [Q252H].

Serine/threonine-protein kinase MRCK gamma (Homo sapiens), sequence (Q6DT37 whole entry): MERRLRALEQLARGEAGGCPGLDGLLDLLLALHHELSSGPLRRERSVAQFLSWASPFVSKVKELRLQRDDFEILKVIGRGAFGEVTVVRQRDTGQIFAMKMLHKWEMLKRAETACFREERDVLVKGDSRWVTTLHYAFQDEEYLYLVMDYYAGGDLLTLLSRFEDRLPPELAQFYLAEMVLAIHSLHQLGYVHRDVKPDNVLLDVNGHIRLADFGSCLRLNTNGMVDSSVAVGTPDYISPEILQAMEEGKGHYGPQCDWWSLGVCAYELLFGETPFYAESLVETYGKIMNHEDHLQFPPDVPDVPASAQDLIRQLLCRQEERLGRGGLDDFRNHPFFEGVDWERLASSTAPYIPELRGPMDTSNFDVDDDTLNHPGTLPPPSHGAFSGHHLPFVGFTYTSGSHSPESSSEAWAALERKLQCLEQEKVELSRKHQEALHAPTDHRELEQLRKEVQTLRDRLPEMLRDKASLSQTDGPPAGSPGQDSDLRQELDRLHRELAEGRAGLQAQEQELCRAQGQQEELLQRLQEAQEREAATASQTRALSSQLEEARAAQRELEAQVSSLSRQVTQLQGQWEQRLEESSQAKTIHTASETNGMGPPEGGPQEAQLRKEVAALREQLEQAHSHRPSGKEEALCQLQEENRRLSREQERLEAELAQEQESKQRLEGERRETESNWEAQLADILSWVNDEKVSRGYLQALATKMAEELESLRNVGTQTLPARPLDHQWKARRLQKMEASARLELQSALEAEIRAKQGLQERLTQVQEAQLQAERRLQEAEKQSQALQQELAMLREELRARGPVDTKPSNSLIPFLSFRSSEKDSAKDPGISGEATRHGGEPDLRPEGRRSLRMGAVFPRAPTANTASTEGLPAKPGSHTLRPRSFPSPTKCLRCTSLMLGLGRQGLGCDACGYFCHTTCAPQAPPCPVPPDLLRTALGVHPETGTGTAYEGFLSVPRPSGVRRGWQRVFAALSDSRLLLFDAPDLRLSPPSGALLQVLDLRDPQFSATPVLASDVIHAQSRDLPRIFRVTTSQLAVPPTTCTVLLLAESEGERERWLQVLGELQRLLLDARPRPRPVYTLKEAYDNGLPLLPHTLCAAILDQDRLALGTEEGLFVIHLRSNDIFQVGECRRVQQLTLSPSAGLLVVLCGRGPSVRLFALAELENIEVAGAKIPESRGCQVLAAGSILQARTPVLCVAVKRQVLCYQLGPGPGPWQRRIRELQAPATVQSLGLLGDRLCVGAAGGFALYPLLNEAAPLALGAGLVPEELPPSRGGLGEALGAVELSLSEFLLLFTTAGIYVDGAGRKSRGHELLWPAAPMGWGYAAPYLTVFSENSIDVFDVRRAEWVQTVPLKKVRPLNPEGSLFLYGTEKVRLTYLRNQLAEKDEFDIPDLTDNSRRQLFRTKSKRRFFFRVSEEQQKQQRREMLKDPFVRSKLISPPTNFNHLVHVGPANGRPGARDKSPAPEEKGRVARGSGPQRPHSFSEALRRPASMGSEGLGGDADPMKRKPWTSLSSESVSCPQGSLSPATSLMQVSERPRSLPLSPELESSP
Receptor tyrosine-protein kinase erbB-2 (Homo sapiens), sequence (P04626 whole entry): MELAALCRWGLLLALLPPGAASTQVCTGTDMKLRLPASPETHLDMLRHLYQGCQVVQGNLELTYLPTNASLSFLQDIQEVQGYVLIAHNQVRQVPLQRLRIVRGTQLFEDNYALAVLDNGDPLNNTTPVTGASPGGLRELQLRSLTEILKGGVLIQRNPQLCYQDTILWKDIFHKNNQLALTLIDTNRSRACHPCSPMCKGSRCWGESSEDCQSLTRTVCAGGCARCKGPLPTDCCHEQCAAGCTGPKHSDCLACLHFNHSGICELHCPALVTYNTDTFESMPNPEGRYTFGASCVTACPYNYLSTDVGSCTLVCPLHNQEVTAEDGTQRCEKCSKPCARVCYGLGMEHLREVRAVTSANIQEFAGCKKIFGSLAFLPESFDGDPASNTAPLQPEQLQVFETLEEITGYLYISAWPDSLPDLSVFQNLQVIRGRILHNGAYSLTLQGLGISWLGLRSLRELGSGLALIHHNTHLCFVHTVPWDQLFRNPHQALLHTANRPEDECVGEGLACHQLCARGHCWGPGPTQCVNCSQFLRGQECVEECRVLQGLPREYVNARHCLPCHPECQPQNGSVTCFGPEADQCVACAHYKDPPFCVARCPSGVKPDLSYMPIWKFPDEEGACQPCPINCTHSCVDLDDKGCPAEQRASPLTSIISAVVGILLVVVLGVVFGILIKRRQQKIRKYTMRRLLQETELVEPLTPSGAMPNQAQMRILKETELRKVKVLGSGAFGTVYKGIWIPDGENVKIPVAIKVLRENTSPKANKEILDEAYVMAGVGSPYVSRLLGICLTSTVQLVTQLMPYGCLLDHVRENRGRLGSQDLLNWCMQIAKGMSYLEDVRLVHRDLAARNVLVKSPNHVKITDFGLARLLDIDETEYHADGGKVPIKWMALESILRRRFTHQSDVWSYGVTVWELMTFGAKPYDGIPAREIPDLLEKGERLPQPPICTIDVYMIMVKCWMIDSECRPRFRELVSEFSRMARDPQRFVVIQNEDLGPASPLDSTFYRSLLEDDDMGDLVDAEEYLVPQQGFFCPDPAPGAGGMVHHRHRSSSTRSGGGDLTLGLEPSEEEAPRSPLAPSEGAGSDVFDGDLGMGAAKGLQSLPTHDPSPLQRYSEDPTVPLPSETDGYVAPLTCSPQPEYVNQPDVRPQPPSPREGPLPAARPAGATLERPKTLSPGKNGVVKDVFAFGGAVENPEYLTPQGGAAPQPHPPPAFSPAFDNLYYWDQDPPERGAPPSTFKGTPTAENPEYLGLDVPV
Cyclin-dependent kinase 19 (Homo sapiens), sequence (Q9BWU1 whole entry): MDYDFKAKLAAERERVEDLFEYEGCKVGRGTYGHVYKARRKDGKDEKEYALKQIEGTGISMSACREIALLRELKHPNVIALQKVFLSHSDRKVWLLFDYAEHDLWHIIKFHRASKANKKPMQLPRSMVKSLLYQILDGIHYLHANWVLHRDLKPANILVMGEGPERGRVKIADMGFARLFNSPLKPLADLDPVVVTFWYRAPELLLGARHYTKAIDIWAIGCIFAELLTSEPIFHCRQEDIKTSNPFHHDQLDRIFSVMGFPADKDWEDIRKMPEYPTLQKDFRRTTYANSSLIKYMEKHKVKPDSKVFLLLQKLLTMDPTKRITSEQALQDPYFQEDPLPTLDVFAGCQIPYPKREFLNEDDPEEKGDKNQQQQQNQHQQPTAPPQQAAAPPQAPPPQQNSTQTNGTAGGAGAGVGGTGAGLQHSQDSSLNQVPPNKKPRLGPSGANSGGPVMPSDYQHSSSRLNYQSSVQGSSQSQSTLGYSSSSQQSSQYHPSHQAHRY
Serine/threonine-protein kinase ULK1 (Homo sapiens), sequence (O75385 whole entry): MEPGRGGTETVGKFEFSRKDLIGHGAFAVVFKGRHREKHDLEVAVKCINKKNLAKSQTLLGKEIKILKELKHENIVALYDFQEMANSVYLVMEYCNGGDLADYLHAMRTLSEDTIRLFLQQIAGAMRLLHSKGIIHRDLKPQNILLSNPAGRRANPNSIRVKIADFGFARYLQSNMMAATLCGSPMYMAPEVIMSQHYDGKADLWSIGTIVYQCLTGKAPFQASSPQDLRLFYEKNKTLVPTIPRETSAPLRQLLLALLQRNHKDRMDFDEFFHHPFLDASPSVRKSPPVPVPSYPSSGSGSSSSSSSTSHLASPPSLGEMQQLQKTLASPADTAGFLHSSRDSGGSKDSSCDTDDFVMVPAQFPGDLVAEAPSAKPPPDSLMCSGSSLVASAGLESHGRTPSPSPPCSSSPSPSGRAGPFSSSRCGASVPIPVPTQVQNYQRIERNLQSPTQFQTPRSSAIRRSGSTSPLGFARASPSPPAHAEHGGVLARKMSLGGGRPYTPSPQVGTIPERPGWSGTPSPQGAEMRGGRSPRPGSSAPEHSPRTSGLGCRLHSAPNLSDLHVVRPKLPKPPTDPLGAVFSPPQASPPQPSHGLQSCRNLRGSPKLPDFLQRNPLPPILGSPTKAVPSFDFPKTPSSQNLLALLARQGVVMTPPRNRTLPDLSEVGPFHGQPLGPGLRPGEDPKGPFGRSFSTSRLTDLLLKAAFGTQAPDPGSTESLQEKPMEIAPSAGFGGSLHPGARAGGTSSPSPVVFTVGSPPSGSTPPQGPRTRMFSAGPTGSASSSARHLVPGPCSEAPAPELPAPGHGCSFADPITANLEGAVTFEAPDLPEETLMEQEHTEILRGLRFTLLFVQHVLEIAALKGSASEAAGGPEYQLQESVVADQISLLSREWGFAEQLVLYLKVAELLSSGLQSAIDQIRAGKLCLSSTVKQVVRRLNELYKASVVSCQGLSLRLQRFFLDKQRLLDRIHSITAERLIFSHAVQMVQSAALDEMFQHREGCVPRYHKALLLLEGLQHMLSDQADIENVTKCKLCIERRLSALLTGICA

As to `Cc1nc(C2CCN(C(=O)c3ccc(OC(F)(F)F)cc3N)CC2)c2ncc(N3CCN(C)CC3)cc2n1` [BAY-693], the residual activity (as a rule, what remains of the control signal, in per cent) in assay [1] was 100%; in assay [2] it was 100%; in assay [3], 49%; in assay [4], 46%; in assay [5], 100%; in assay [6], 81%. Also, the residual activity in assay [7] is 100%; in [8] it was 100%; in assay [9] it was 100%; in assay [10] it was 86%; in assay [11], 81%.
Turning to `CN1CCN(c2cnc3c(C4CCN(C(=O)c5ccc(OC(F)(F)F)cc5N)CC4)ncnc3c2)CC1` [BAY-885], the residual activity in assay [1] was 100%; in assay [2] it was 100%; in assay [3], 100%; in [4], 100%; in assay [5], 84%; in [6] it was 77%. In addition, the residual activity is 100% in [7]; 92% in assay [8]; 100% in assay [9]; 79% in [10]; 79% in [11].
